Data published in publication PMC11988454, “Discovery of synthetic small molecules targeting the central regulator of Salmonella pathogenicity” (Science Advances, 2025).
Values joined by “and” are separate entries in the source; they are usually repeats but may differ in a detail not shown here. Equal values may be shown once.

Key:
[1] = test system: HeLa cells; assay: In vitro toxicity, ApoTox-Glo assay; type: cell-based
[2] = test system: male ICR mice; assay: Maximum tolerated dose (MTD) experiment, oral
Description: C26 was formulated in 5% Tween 20 (v/v), 50% lecithin (from soy bean: 40 mg in 800 μl of distilled water), and 45% PBS at 0.6, 2, and 6 mg/ml for oral administration. A dosing volume of 5 ml/kg was applied. C26 was administered orally to groups of three male Institute of Cancer Research (ICR) mice (23 ± 3 g) at an initiating dose of 3 mg/kg in an MTD setup. The animals received an initial dose of 3 mg/kg. If the animals survived for 72 hours, the group (10 mg/kg) was tested. If the animals survived for 72 additional hours, the group (30 mg/kg) was tested. Experiments were performed by Pharmacology Discovery Services Taiwan Ltd., in general accordance with the “Guide for the Care and Use of Laboratory Animals: Eighth Edition” (National Academies Press, Washington, DC, 2011). The animal care and protocol were reviewed and approved by the Institutional Animal Care and Use Committee (IACUC) at Pharmacology Discovery Services Taiwan Ltd.

[3] = test system: SPI-encoded genes; type: cell-based, S. Typhimurium
Description: Salmonella was grown for 5 hours at 37°C in LB medium in the presence of 100 μM C26 or 1% (v/v) DMSO as a control. After growth, bacteria were harvested by centrifugation, and total RNA was isolated using the Qiagen RNeasy mini kit according to the manufacturer’s protocol. RNA-seq was performed on a HiSeq2500 with a 2 x 125–base pair paired-end read protocol. The Illumina Casava software was used to demultiplex the sequenced reads providing individual raw fastq sample files. Raw fastq files were prefiltered using the chastity filter to remove reads that contain a “Y” flag. FastQC (https://www.bioinformatics.babraham.ac.uk/projects/fastqc/, version v0.11.4) was used to determine the quality of the resulting fastq files. Subsequently, an adapter trimming/removal step was conducted with Cutadapt (https://pypi.python.org/pypi/cutadapt/, version 1.8.3). […] TopHat2 (https://ccb.jhu.edu/software/tophat/index.shtml, version v2.0.12) was used as aligner to map the remaining quality controlled reads to the Salmonella genome. Read counting to features (e.g., genes or exons) in the genome was performed with HTSeq-count (https://htseq.readthedocs.io/en/master/htseqcount.html, version 0.6.0.). Counting was performed using “union” mode on the feature “gene.” The stranded option was also set to “–stranded=no” to indicate to count features on both strands. Furthermore, the -r parameter from HTSeq was set to “pos” as this is the default of the output of TopHat’s “accepted_hits.bam” mapping file. For differential expression analysis, the raw read count table resulting from HTSeq counting is used and fed into the R package DESeq2 (version 1.10.1). Graphs were also produced in the R language (R version 3.2.1) mainly using the R package ggplot2 (version 2.2.0). Reports were produced using the R package rmarkdown (version 1.3).

[4] = target: T1, HilD (Salmonella typhimurium, UniProt E1WAC0); assay: Whole-cell HilD activity assay (PhilA-sfGFP activation); type: cell-based, S. Typhimurium
T1 construct: endogenous in cells; host or cells: S. Typhimurium SL1344 strain PhilA-sfGFP
Description: A whole-cell reporter gene assay was used to quantify HilD transcriptional activity. Strain PhilA-sfGFP and the isogenic ΔhilD PhilA-sfGFP were used for this purpose. Cultures were performed in 1 ml of LB supplemented with 0.3 M NaCl. Compounds at different concentrations or 1% (v/v) DMSO were added to the corresponding tubes. Cultures were incubated at 37°C and 180 rpm for 5 hours. Cells were pelleted, resuspended in 100 μl of PBS, and then transferred into a 96-well black clear-bottom plate (Thermo Fisher Scientific, USA). Fluorescence intensity was measured with a Tecan Spark microplate reader with an excitation wavelength of 485 nm and an emission wavelength of 510 nm. Dose-response curves and IC50 values were calculated using CDD Vault.

[5] = test system: S. Typhimurium SL1344; assay: Growth in LB medium (OD at 600 nm); type: cell-based; settings: C26 at different concentrations
Description: Experiment performed in a 96-well plate. Growth assessed by measuring the OD at 600 nm (N = 3 biological replicates).

[6] = C26 100 μM vs DMSO, single replicates (Fig 2E)
[7] = C26 100 μM, size of the down-regulation given without sign

T1 sequence (E1WAC0 whole entry): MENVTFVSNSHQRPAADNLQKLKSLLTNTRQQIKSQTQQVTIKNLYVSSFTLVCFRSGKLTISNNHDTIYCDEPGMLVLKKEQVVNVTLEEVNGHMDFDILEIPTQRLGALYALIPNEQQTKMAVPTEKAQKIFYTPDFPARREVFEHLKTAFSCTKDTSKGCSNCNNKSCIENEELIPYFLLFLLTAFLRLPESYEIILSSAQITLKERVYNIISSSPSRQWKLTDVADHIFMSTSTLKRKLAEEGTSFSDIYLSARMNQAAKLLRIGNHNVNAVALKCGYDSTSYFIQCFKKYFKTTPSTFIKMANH

`CN(CC(=O)NCc1ccc2c(c1)OCO2)Cc1ccc(Br)s1` [C26, N-(benzo[d][1,3]dioxol-5-ylmethyl)-2-{[(5-bromothiophen-2-yl)methyl](methyl)amino}acetamide] was tested, and the TC50 viability ([1]; 12 hours exposure) was “could not be calculated because of low toxicity levels”, the TC50 viability ([1]; 18 hours exposure) was 98 µM and the “Toxicity (death / test)” value ([2]; PO 3 mg/kg, 1 h) was 0/3. The “Toxicity (death / test)” value ([2]; PO 3 mg/kg, 2 h) was 0/3, the “Toxicity (death / test)” value ([2]; PO 3 mg/kg, 24 h) was 0/3 and the “Toxicity (death / test)” value ([2]; PO 3 mg/kg, 48 h) was 0/3. The “Toxicity (death / test)” value ([2]; PO 3 mg/kg, 72 h) was 0/3, the “Toxicity (death / test)” value ([2]; PO 10 mg/kg, 1 h) was 0/3 and the “Toxicity (death / test)” value ([2]; PO 10 mg/kg, 2 h) was 0/3. For the same molecule, the “Toxicity (death / test)” value ([2]; PO 10 mg/kg, 24 h) was 0/3, the “Toxicity (death / test)” value ([2]; PO 10 mg/kg, 48 h) was 0/3 and the “Toxicity (death / test)” value ([2]; PO 10 mg/kg, 72 h) was 0/3. For the same molecule, the “Toxicity (death / test)” value ([2]; PO 30 mg/kg, 1 h) was 0/3, the “Toxicity (death / test)” value ([2]; PO 30 mg/kg, 2 h) was 0/3 and the “Toxicity (death / test)” value ([2]; PO 30 mg/kg, 24 h) was 0/3. The “Toxicity (death / test)” value ([2]; PO 30 mg/kg, 48 h) was 0/3, the “Toxicity (death / test)” value ([2]; PO 30 mg/kg, 72 h) was 0/3 and the abnormalities at termination ([2]; mouse, in vivo) was “no notable abnormalities”. For the same molecule, the “Body weight (g) 72 h” value ([2]; mouse, in vivo, po, 3 mg/kg) was 29 g, the “Body weight (g) Pre-dose” value ([2]; mouse, in vivo, po, 10 mg/kg) was 25 g and the “mortality and adverse effects” value ([2]; oral 3, 10 and 30 mg/kg, mice) was “Neither mortality nor notable adverse effects”. The “Log2 Fold change STM0972” value [3, 6] was -1.019 and -1.567 and -1.468, the “Log2 Fold change STM05625” value [3, 6] was -1.06 and -1.782 and -1.1981 and the “Log2 Fold change avrA” value [3, 6] was -1.134 and -2.023 and -1.399. The “Log2 Fold change hilA” value [3, 6] was -3.571 and -4.424 and -3.961, the “Log2 Fold change hilC” value [3, 6] was -2.8 and -3.816 and -2.688 and the “Log2 Fold change hilD” value [3, 6] was -1.794 and -2.09 and -1.995. For the same molecule, the “Log2 Fold change iacP” value [3, 6] was -2.394 and -3.567 and -2.412, the “Log2 Fold change iagB” value [3, 6] was -3.642 and -4.006 and -3.534 and the “Log2 Fold change invA” value [3, 6] was -3.221 and -3.81 and -3.166. The “Log2 Fold change invB” value [3, 6] was -2.867 and -3.637 and -3.183, the “Log2 Fold change invC” value [3, 6] was -2.536 and -3.183 and -2.8784 and the “Log2 Fold change invE” value [3, 6] was -3.292 and -4.06 and -3.2144. For the same molecule, the “Log2 Fold change invF” value [3, 6] was -3.621 and -4.389 and -3.592, the “Log2 Fold change invG” value [3, 6] was -3.834 and -4.335 and -3.589 and the “Log2 Fold change invH” value [3, 6] was -3.135 and -3.596 and -3.2198. For the same molecule, the “Log2 Fold change invI” value [3, 6] was -3.283 and -3.556 and -3.358, the “Log2 Fold change orgA” value [3, 6] was -1.913 and -2.484 and -2.0655 and the “Log2 Fold change orgB” value [3, 6] was -1.03 and -1.516 and -1.313. For the same molecule, the “Log2 Fold change orgC” value [3, 6] was -0.8446 and -1.317 and -1.218, the “Log2 Fold change pagC” value [3, 6] was -0.9557 and -1.642 and -1.303 and the “Log2 Fold change pipB” value [3, 6] was -1.346 and -1.626 and -1.791. The “Log2 Fold change prgH” value [3, 6] was -2.242 and -3.146 and -2.589, the “Log2 Fold change prgI” value [3, 6] was -2.528 and -3.17 and -2.85 and the “Log2 Fold change prgJ” value [3, 6] was -2.351 and -3.201 and -2.717. For the same molecule, the “Log2 Fold change prgK” value [3, 6] was -2.159 and -2.912 and -2.508, the “Log2 Fold change rtsA” value [3, 6] was -3.522 and -4.691 and -3.546 and the “Log2 Fold change sicA” value [3, 6] was -2.525 and -3.5667 and -2.5609. The “Log2 Fold change sicP” value [3, 6] was -1.008 and -1.8772 and -1.275, the “Log2 Fold change sifB” value [3, 6] was -1.447 and -2.07 and -1.848 and the “Log2 Fold change sipA” value [3, 6] was -2.154 and -3.4073 and -2.1103. The “Log2 Fold change sipB” value [3, 6] was -2.364 and -3.5554 and -2.316, the “Log2 Fold change sipC” value [3, 6] was -2.344 and -3.615 and -2.313 and the “Log2 Fold change sipD” value [3, 6] was -2.421 and -3.506 and -2.2134. For the same molecule, the “Log2 Fold change sopB” value [3, 6] was -1.308 and -2.976 and -1.42, the “Log2 Fold change sopD” value [3, 6] was -1.407 and -0.6715 and -1.948 and the “Log2 Fold change sopE2” value [3, 6] was -1.5 and -2.647 and -1.472. For the same molecule, the “Log2 Fold change spaN” value [3, 6] was -2.873 and -3.527 and -3.123, the “Log2 Fold change spaO” value [3, 6] was -2.648 and -3.446 and -2.941 and the “Log2 Fold change spaP” value [3, 6] was -2.823 and -3.907 and -2.993. For the same molecule, the “Log2 Fold change spaQ” value [3, 6] was -3 and -2.087 and -2.907, the “Log2 Fold change spaR” value [3, 6] was -1.963 and -4.022 and -1.926 and the “Log2 Fold change spaS” value [3, 6] was -2.051 and -2.854 and -2.155. The “Log2 Fold change sprB” value [3, 6] was -2.031 and -3.538 and -1.986, the “Log2 Fold change ssaG” value [3, 6] was -1.637 and -2.322 and -2.8413 and the “log2 fold change expression RtsA” value [3, 7] was 3.82. For the same molecule, the “log2 fold change expression hilA” value [3, 7] was 3.94, the “log2 fold change expression hilC” value [3, 7] was 3.02 and the “log2 fold change expression hilD” value [3, 7] was 1.95. The IC50 [4] was 16.9 µM and the “growth of S. Typhimurium” value [5] was “did not impair the growth”.
